Reference: ChEMBL document CHEMBL3112450, “Synthesis and in vitro antitumor evaluation of primary amine substituted quinazoline linked benzimidazole” (Bioorg Med Chem Lett, 2014)

Columns and labels:
Assay type in all cases: functional
U-251 [1] = experiment: Cytotoxicity against human U251 cells assessed as cell growth at 10^-6 M after 48 hrs by SRB assay; details: U-251, 48 h, read-out: Activity
NCI-H522 [2] = experiment: Cytotoxicity against human NCI-H522 cells after 48 hrs by SRB assay; details: NCI-H522, 48 h
SK-MEL-5 = experiment: Cytotoxicity against human SK-MEL-5 cells assessed as cell growth at 10^-7 M after 48 hrs by SRB assay; details: SK-MEL-5, 48 h, read-out: Activity
NCI-H23 = experiment: Cytotoxicity against human NCI-H23 cells assessed as cell growth at 10^-4 M after 48 hrs by SRB assay; details: NCI-H23, 48 h, read-out: Activity
RXF 393 [3] = experiment: Cytotoxicity against human RXF393 cells assessed as cell growth at 10^-4 M after 48 hrs by SRB assay; details: RXF 393, 48 h, read-out: Activity
TK-10 = experiment: Cytotoxicity against human TK10 cells after 48 hrs by SRB assay; details: TK-10, 48 h
CCRF-CEM = experiment: Cytotoxicity against human CCRF-CEM cells after 48 hrs by SRB assay
[4] = Cytotoxicity against human OVCAR5 cells after 48 hrs by SRB assay; details: OVCAR-5, 48 h
HCT-15 = experiment: Cytotoxicity against human HCT15 cells after 48 hrs by SRB assay; details: HCT-15, 48 h
SK-OV-3 = experiment: Cytotoxicity against human SKOV3 cells after 48 hrs by SRB assay; details: SK-OV-3, 48 h
BT-549 [5] = experiment: Cytotoxicity against human BT549 cells assessed as cell growth at 10^-7 M after 48 hrs by SRB assay; details: BT-549, 48 h, read-out: Activity
NCI-H460 = experiment: Cytotoxicity against human NCI-H460 cells assessed as cell growth at 10^-8 M after 48 hrs by SRB assay; details: NCI-H460, 48 h, read-out: Activity
SF-539 [6] = experiment: Cytotoxicity against human SF539 cells assessed as cell growth at 10^-8 M after 48 hrs by SRB assay; details: SF-539, 48 h, read-out: Activity
T47D = experiment: Cytotoxicity against human T47D cells assessed as cell growth at 10^-7 M after 48 hrs by SRB assay; details: read-out: Activity
SK-MEL-28 [7] = experiment: Cytotoxicity against human SK-MEL-28 cells after 48 hrs by SRB assay; details: SK-MEL-28, 48 h
ACHN = experiment: Cytotoxicity against human ACHN cells assessed as cell growth at 10^-6 M after 48 hrs by SRB assay; details: read-out: Activity
SF-539 [8] = experiment: Cytotoxicity against human SF539 cells assessed as cell growth at 10^-4 M after 48 hrs by SRB assay; details: SF-539, 48 h, read-out: Activity
KM12 [9] = experiment: Cytotoxicity against human KM12 cells assessed as cell growth at 10^-7 M after 48 hrs by SRB assay; details: KM12, 48 h, read-out: Activity
RPMI-8226 [10] = experiment: Cytotoxicity against human RPMI8226 cells assessed as cell growth at 10^-4 M after 48 hrs by SRB assay; details: RPMI-8226, 48 h, read-out: Activity
RXF 393 [11] = experiment: Cytotoxicity against human RXF393 cells assessed as cell growth at 10^-8 M after 48 hrs by SRB assay; details: RXF 393, 48 h, read-out: Activity
SK-MEL-28 [12] = experiment: Cytotoxicity against human SK-MEL-28 cells assessed as cell growth at 10^-6 M after 48 hrs by SRB assay; details: SK-MEL-28, 48 h, read-out: Activity
IGROV-1 = experiment: Cytotoxicity against human IGROV1 cells after 48 hrs by SRB assay; details: IGROV-1, 48 h
SR = experiment: Cytotoxicity against human SR cells assessed as cell growth at 10^-8 M after 48 hrs by SRB assay; details: read-out: Activity
BT-549 [13] = experiment: Cytotoxicity against human BT549 cells assessed as cell growth at 10^-4 M after 48 hrs by SRB assay; details: BT-549, 48 h, read-out: Activity
NCI-H522 [14] = experiment: Cytotoxicity against human NCI-H522 cells assessed as cell growth at 10^-6 M after 48 hrs by SRB assay; details: NCI-H522, 48 h, read-out: Activity
[15] = Cytotoxicity against human NCI-ADR-RES cells assessed as cell growth at 10^-6 M after 48 hrs by SRB assay; details: read-out: Activity
RPMI-8226 [16] = experiment: Cytotoxicity against human RPMI8226 cells after 48 hrs by SRB assay; details: RPMI-8226, 48 h
KM12 [17] = experiment: Cytotoxicity against human KM12 cells assessed as cell growth at 10^-4 M after 48 hrs by SRB assay; details: KM12, 48 h, read-out: Activity
K562 [18] = experiment: Cytotoxicity against human K562 cells after 48 hrs by SRB assay; details: K562, 48 h
NCI-H226 = experiment: Cytotoxicity against human NCI-H226 cells assessed as cell growth at 10^-4 M after 48 hrs by SRB assay; details: NCI-H226, 48 h, read-out: Activity
K562 [19] = experiment: Cytotoxicity against human K562 cells assessed as cell growth at 10^-6 M after 48 hrs by SRB assay; details: K562, 48 h, read-out: Activity
NCI-H322M = experiment: Cytotoxicity against human NCI-H322M cells after 48 hrs by SRB assay
A498 = experiment: Cytotoxicity against human A498 cells after 48 hrs by SRB assay; details: A498, 48 h
DU-145 = experiment: Cytotoxicity against human DU145 cells assessed as cell growth at 10^-4 M after 48 hrs by SRB assay; details: DU-145, 48 h, read-out: Activity
BT-549 [20] = experiment: Cytotoxicity against human BT549 cells after 48 hrs by SRB assay; details: BT-549, 48 h
U-251 [21] = experiment: Cytotoxicity against human U251 cells assessed as cell growth at 10^-8 M after 48 hrs by SRB assay; details: U-251, 48 h, read-out: Activity
[22] = Cytotoxicity against human Hs578T cells assessed as cell growth at 10^-4 M after 48 hrs by SRB assay; details: Hs-578T, read-out: Activity
MDA-MB-468 = experiment: Cytotoxicity against human MDA-MB-468 cells assessed as cell growth at 10^-4 M after 48 hrs by SRB assay; details: MDA-MB-468, 48 h, read-out: Activity
SNB-19 = experiment: Cytotoxicity against human SNB19 cells assessed as cell growth at 10^-4 M after 48 hrs by SRB assay; details: SNB-19, 48 h, read-out: Activity

In the case of C=CCn1c(C)nc2ccc(Nc3nc(Nc4ccc(F)cc4)nc4ccccc34)cc21, the growth at 1 µM (U-251 [1]) is reported as 83%, the GI50 (NCI-H522 [2]) is reported as 3.12 µM and the TGI (NCI-H522 [2]) is reported as 13.4 µM. For the same compound, the CC50 (NCI-H522 [2]; read-out: LC50 (the source's name)) was 75.5 µM, the growth at 0.1 µM (SK-MEL-5) was 93% and the growth at 100 µM (NCI-H23) was -39%. The growth at 100 µM (RXF 393 [3]) was -56%, the GI50 (TK-10) was 6.83 µM and the LC50 (TK-10) was 75.5 µM. For the same compound, the TGI (TK-10) was 24.6 µM, the GI50 (CCRF-CEM) was 3.01 µM and the LC50 (CCRF-CEM) was greater than 100 µM. For the same compound, the TGI (CCRF-CEM) was 11.7 µM, the GI50 [4] was 11.6 µM and the LC50 [4] was 61.2 µM. The TGI [4] was 26.6 µM, the GI50 (HCT-15) was 2.84 µM and the LC50 (HCT-15) was greater than 100 µM. The TGI (HCT-15) was 10.4 µM, the GI50 (SK-OV-3) was 1.93 µM and the TGI (SK-OV-3) was 3.74 µM. It also gave a growth at 0.1 µM (BT-549 [5]) of 94%, a growth at 0.01 µM (NCI-H460) of 100% and a growth at 0.01 µM (SF-539 [6]) of 99%. It also gave a growth at 0.1 µM (T47D) of 85%, a GI50 (SK-MEL-28 [7]) of 1.65 µM and an LC50 (SK-MEL-28 [7]) of 5.94 µM. The TGI (SK-MEL-28 [7]) was 3.13 µM, the growth at 1 µM (ACHN) was 94% and the growth at 100 µM (SF-539 [8]) was -92%. It also gave a growth at 0.1 µM (KM12 [9]) of 94%, a growth at 100 µM (RPMI-8226 [10]) of -36% and a growth at 0.01 µM (RXF 393 [11]) of 98%. The growth at 1 µM (SK-MEL-28 [12]) was 89%, the GI50 (IGROV-1) was 6.09 µM and the LC50 (IGROV-1) was 98.7 µM. The TGI (IGROV-1) was 27.2 µM, the growth at 0.01 µM (SR) was 98% and the growth at 100 µM (BT-549 [13]) was -61%. For the same compound, the growth at 1 µM (NCI-H522 [14]) was 91%, the growth at 1 µM [15] was 96% and the GI50 (RPMI-8226 [16]) was 1.85 µM. The LC50 (RPMI-8226 [16]) was greater than 100 µM, the TGI (RPMI-8226 [16]) was 4.57 µM and the growth at 100 µM (KM12 [17]) was -79%. It also gave a GI50 (K562 [18]) of 3.13 µM, an LC50 (concentration killing 50% of cells) (K562 [18]) greater than 100 µM and a TGI (K562 [18]) of 11.9 µM. For the same compound, the growth at 100 µM (NCI-H226) was -5%, the growth at 1 µM (K562 [19]) was 96% and the GI50 (NCI-H322M) was 6.16 µM. The LC50 (NCI-H322M) was 55.1 µM, the TGI (NCI-H322M) was 21.5 µM and the GI50 (A498) was 4.36 µM. It also gave an LC50 (A498) of 69 µM, a TGI (A498) of 24.1 µM and a growth at 100 µM (DU-145) of -84%. For the same compound, the GI50 (BT-549 [20]) was 3.35 µM, the LC50 (BT-549 [20]) was 73.1 µM and the TGI (BT-549 [20]) was 18.1 µM. For the same compound, the growth at 0.01 µM (U-251 [21]) was 97%, the growth at 100 µM [22] was -16% and the growth at 100 µM (MDA-MB-468) was -37%. It also gave a growth at 100 µM (SNB-19) of -80%.
